According to publication PMC9781104 (Pharmaceutics, 2022):
Where two headings read alike, the source gives them in different places.

Tests used:
[1] = system: CYP2D6; settings: cited from earlier work; for Km: literature value adapted with fu,inc
[2] = system: CYP2D6; experiment: In vitro scaling factors from CYP2D6 activity score-specific in vitro metabolite formation rates; type: in vitro ADME, human
Text: Here, kcat, AS=i represents the catalytic rate constant for CYP2D6 AS = i, kcat, AS=2 is the catalytic rate constant for the NM population and IVSFi is the corresponding in vitro scaling factor (IVSF).
S2. Drug-Gene-Interaction (DGI) Modeling
S2.1. CYP2D6 in vitro Scaling Factors
The estimated CYP2D6 kcat values for the NM population were extrapolated to the intermediate metabolizers (IM) (AS=0.5, AS=0.75 and AS=1) and ultrarapid metabolizers (UM) populations according to Equation 1 in the main manuscript, using in vitro scaling factors (IVSFs). Determination of IVSFs were based on AS-specific in vitro metabolite formation rates relative to the corresponding formation rate in NM as a reference. The respective IVSFs for each CYP2D6-dependent pathway are depicted in Table S8. Measured in vitro data for (E)-4-OH-Clom and (E)-4-OH-DE-Clom AS-specific formation rates were available, while mean values were assumed for the remaining CYP2D6-dependent metabolic pathways.
Table S8. Employed in vitro scaling factors (IVSFs) for individual CYP2D6 activity scores. […]

[3] = Bioavailability calculated from literature AUC0-24h after oral and intravenous clomiphene citrate; type: in vivo, human; settings: 50 mg clomiphene citrate; intravenous study n = 2
Text: Both isomers show highly distinct pharmacokinetic characteristics and also differ in affinity to the target receptor [22, 28]. […] While the calculated value from the literature is based on an intravenous study with a small number of study participants (n = 2), a low bioavailability can be supported with the developed PBPK model.

[4] = system: CYP3A4; experiment: Fraction metabolized via CYP3A4 calculated from observed AUClast (NM with vs without clarithromycin, Equation S1); type: in vivo, human; settings: estimated from observed AUClast increase in NM with clarithromycin
Text: Calculation of Fractions Metabolized
(§1) (normal metabolizers (NM)) [39]. […] In addition, data from
(§2) the CYP2D6 NM population in the clarithromycin DDI scenario (CYP3A4 inhibition) was used to
(§3) For this, the observed relative AUClast increase in the NM population between
(§4) the DDI scenario with CYP3A4 inhibition and the control scenario without inhibition was used,
Of note, a complete CYP3A4 inhibition through clarithromycin
was assumed, given the strong and mechanism-based inhibition through clarithromycin, which was
(§5) 1 −fm = AUClast,effect,AS=iAUClast,control (S1)
for the NM population without concomitant clarithromycin administration.

[5] = cited from earlier work
[6] = system: CYP2D6; experiment: Fraction metabolized via CYP2D6 calculated from observed AUClast (PM vs NM, Equation S1); type: in vivo, human; settings: calculated from observed relative AUClast increase PM vs NM
Text: Calculation of Fractions Metabolized
as §1, §2, §3, §4, §5

[7] = system: CYP3A4; set-up: method as in ref [17, 18] of supplement; settings: literature value adapted with fu,inc; ref [17, 18] of supplement; read-out: CYP3A4 Km → (E)-DE-Clom; cited from earlier work
[8] = Pharmacokinetic panel study in CYP2D6-genotyped healthy female volunteers (observed plasma AUClast/Cmax, DGI and DD(G)I with clarithromycin or paroxetine); type: in vivo, human
Protocol: Clinical data from a recently performed pharmacokinetic panel study (EudraCT-Nr.: 2009-014531-20, ClinicalTrails.gov: NCT01289756) were used for PBPK model development. The study protocol, patient information sheet and consent form were approved by the Ethics Committee of the University of Tübingen and the German Federal Institute for Drugs and Medical Devices (BfArM). All study participants had signed an informed consent form.
The study was conducted in 20 healthy, Caucasian, premenopausal female volunteers that were genotyped for CYP2D6 polymorphisms and subsequently assigned to predicted phenotypes according to the respective CYP2D6 activity score (AS) as depicted in Table 1 [17, 18]. […] After a wash-out phase of at least three weeks, clomiphene was administered concomitantly with the strong CYP3A4 inhibitor clarithromycin [19]. Here, the participants received 500 mg clarithromycin twice daily for four days. On day 5, a single dose of clomiphene citrate was administered together with 500 mg clarithromycin. Finally, in the third period, all subjects received clomiphene citrate together with the strong CYP2D6 inhibitor paroxetine. Here, 40 mg paroxetine was administered once daily for two days. On day 3, participants received a single dose of clomiphene citrate concomitantly with 40 mg paroxetine (Figure 1).
For the evaluation of DGI and DD(G)I effects, the predicted AUClast and Cmax effect ratios were calculated according to Equations (4) and (5) and compared with the corresponding observed values. Here, model performance was assessed using the prediction acceptance limits proposed by Guest et al. with 1.25-fold variability. (4) AUClast, AS=i ratio=AUClast, effect, AS=i/AUClast, control (5) Cmax, AS=i ratio=Cmax, effect, AS=i/Cmax, control
For the calculation of DGI ratios, AUClast, effect, AS=i and Cmax, effect, AS=i represent the AUClast and Cmax for CYP2D6 AS = i, while AUClast, control and Cmax, control are the AUClast and Cmax values for the NM (AS = 2) population. For the calculation of DD(G)I ratios, AUClast, effect, AS=i and Cmax, effect, AS=i represent the AUClast and Cmax for the CYP2D6 AS = i in the DD(G)I scenario with clarithromycin or paroxetine, while AUClast, control and Cmax, control are the AUClast and Cmax values for the CYP2D6 AS = i without the concomitant use of perpetrator drugs.

[9] = system: CYP2B6; set-up: method as in ref [17, 18] of supplement; settings: literature value adapted with fu,inc; ref [17, 18] of supplement; read-out: CYP2B6 Km → (E)-4-OH-Clom; cited from earlier work

CCN(CC)CCOc1ccc(/C(=C(/Cl)c2ccccc2)c2ccccc2)cc1 [(E)-Clom, (E)-clomiphene, reference compound]
intrinsic clearance of CYP2D6 pathway to (Z)-3-hydroxyclomiphene compared to formation of (E)-4-OH-Clom ([1]; higher, ref [19] of supplement): 1.8 fold
Km ([1]; ref [17, 18] of supplement, read-out: CYP2D6 Km → (E)-DE-Clom): 0.78 µM
Km ([1]; ref [19] ((E)-Clom, (E)-4-OH-Clom), [17, 18] ((E)-DE-Clom) of supplement, read-out: CYP2D6 Km → undef.): 0.03 µM
Km ([1]; ref [19] of supplement, read-out: CYP2D6 Km → (E)-4-OH-Clom): 0.13 µM
IVSF, CYP2D6-mediated pathway → (E)-DE-Clom ([2]; AS=0, mean value assumed): 0
IVSF, CYP2D6-mediated pathway → undef. ([2]; AS=0, mean value assumed): 0
IVSF, CYP2D6-mediated pathway → (E)-4-OH-Clom ([2]; AS=0, relative to NM, from in vitro formation rates, supplement ref [17]): 0
IVSF, CYP2D6-mediated pathway → (E)-DE-Clom ([2]; AS=0.5, mean value assumed): 0.17
IVSF, CYP2D6-mediated pathway → undef. ([2]; AS=0.5, mean value assumed): 0.17
IVSF, CYP2D6-mediated pathway → (E)-4-OH-Clom ([2]; AS=0.5, relative to NM, from in vitro formation rates, supplement ref [17]): 0.19
IVSF, CYP2D6-mediated pathway → (E)-DE-Clom ([2]; AS=0.75, mean value assumed): 0.23
IVSF, CYP2D6-mediated pathway → undef. ([2]; AS=0.75, mean value assumed): 0.23
IVSF, CYP2D6-mediated pathway → (E)-4-OH-Clom ([2]; AS=0.75, relative to NM, from in vitro formation rates, supplement ref [17]): 0.27
IVSF, CYP2D6-mediated pathway → (E)-DE-Clom ([2]; AS=1, mean value assumed): 0.51
IVSF, CYP2D6-mediated pathway → undef. ([2]; AS=1, mean value assumed): 0.51
IVSF, CYP2D6-mediated pathway → (E)-4-OH-Clom ([2]; AS=1, relative to NM, from in vitro formation rates, supplement ref [17]): 0.57
IVSF, CYP2D6-mediated pathway → (E)-4-OH-Clom ([2]; AS=2 (NM, reference)): 1
IVSF, CYP2D6-mediated pathway → (E)-DE-Clom ([2]; AS=2 (NM, reference)): 1
IVSF, CYP2D6-mediated pathway → undef. ([2]; AS=2 (NM, reference)): 1
IVSF, CYP2D6-mediated pathway → (E)-DE-Clom ([2]; AS=3, mean value assumed): 1.41
IVSF, CYP2D6-mediated pathway → undef. ([2]; AS=3, mean value assumed): 1.41
IVSF, CYP2D6-mediated pathway → (E)-4-OH-Clom ([2]; AS=3, relative to NM, from in vitro formation rates, supplement ref [17]): 1.52
bioavailability calculated from reported AUC0-24h after oral and intravenous application [3]: ~ 6.3%
fraction metabolized (fm) via CYP3A4 [4]: approximately 13%
Solubility (pH 6.8) ([5]; pH 6.8, ref [24] of supplement): 0.0138 mg/ml
pKa (base), literature ([5]; ref [23], [30], [34], [38] of supplement (ChemAxon Chemicalize)): 9.31
fraction metabolized (fm) via CYP2D6 [6]: ~90%
Km [7]: 0.78 µM
order of AUClast across CYP2D6 phenotypes ([8]; DGI setting): AUCPM > AUCIM > AUCNM > AUCUM
exposure increase in clarithromycin DD(G)I scenario vs control ([8]; NM): ~ 15%
AUClast increase with concomitant paroxetine ([8]; all phenotypes except PM): 2.5–12 fold
AUClast change during CYP3A4 inhibition ([8]; clarithromycin, all phenotypes): slight increase
Km [9]: 0.6 µM
